Here are results for two compounds from PMC3881672, “In Vitro Permeation of Micronized and Nanonized Alaptide from Semisolid Formulations” (The Scientific World Journal, 2013).

Marks after values point to notes of the source that are not given here.

The nature of data set [1]: In vitro transdermal permeation, Franz diffusion cell. Particulars: for Cumulative permeated amounts Q t: mean ± SD n = 5; for apparent permeability coefficient K p × 10^−3: Kp = J/Cd, Cd 1.0 × 10^4 μg/mL.
Data set [2] deals with experimental injury. The arrangement: method as in ref 8 = [8]; 8 Radl S Kasafirek E Krejci I Alaptide Drugs of the Future 1990 15 445 447. Particulars: pigs; cited from earlier work.
Details of data set [3]: method as in PMID 3726896, PMID 2905482. To be noted: cited from earlier work.
Data set [4] concerns experimental skin injuries. Further details: method as in ref 8 = [8]; 8 Radl S Kasafirek E Krejci I Alaptide Drugs of the Future 1990 15 445 447. Particulars: rats; cited from earlier work.
Details of data set [5]: method as in PMID 3726896, PMID 1687590. To be noted: similar metabolic profile also found in man; cited from earlier work.
The subject of data set [6] is CYP1B1. Further details: method as in PMID 3726896, PMID 2905482. To be noted: hepatocytes; cited from earlier work.
On the set-up of data set [7]: method as in ref 8, 9 = [8]; 8 Radl S Kasafirek E Krejci I Alaptide Drugs of the Future 1990 15 445 447 || [9]; 9 Jampílek J Opatrilova R Rezacova A Oktabec Z Dohnal J Inventors; Faculty of Pharmacy, University of Veterinary and Pharmaceutical Sciences Brno, assignee, “Alaptide: Methods of effecting its solubil. To be noted: octanol-water; cited from earlier work.
The test system of data set [8] is CYP1A2. Further details: method as in PMID 3726896, PMID 2905482. Particulars: hepatocytes; cited from earlier work.
Data set [9] has as its system CYP1A1. Further details: method as in PMID 3726896, PMID 2905482. Particulars: hepatocytes; cited from earlier work.
On the set-up of data set [10]: method as in ref 8, 9 = [8]; 8 Radl S Kasafirek E Krejci I Alaptide Drugs of the Future 1990 15 445 447 || [9]; 9 Jampílek J Opatrilova R Rezacova A Oktabec Z Dohnal J Inventors; Faculty of Pharmacy, University of Veterinary and Pharmaceutical Sciences Brno, assignee, “Alaptide: Methods of effecting its solubil. To be noted: cited from earlier work.

`C[C@@H]1NC(=O)C2(CCCC2)NC1=O` [Micro, (S)-8-Methyl-6,9-diazaspiro[4.5]decan-7,10-dione]: the “log K p” value in [1] (from buffer) is recorded as −1.77; in data set [1] (from gel) it was −1.23. Moreover, the “Cumulative permeated amounts Q t” value in data set [1] (from buffer, 0.5 h) is given as 12.6 ± 1.9^a μg/cm^2; in [1] (from buffer, 1 h) it was 40.1 ± 8.0^a μg/cm^2; in data set [1] (from buffer, 2 h), 150.8 ± 7.2^a μg/cm^2; in data set [1] (from buffer, 4 h) it was 418.3 ± 24.6^b μg/cm^2; in [1] (from buffer, 6 h), 1189.0 ± 105.9^d μg/cm^2; in [1] (from buffer, 24 h) it was 3897.1 ± 295.6^f μg/cm^2. In addition, the “Cumulative permeated amounts Q t” value in data set [1] (from cream 1% (w/w), 0.5 h) is 89.9 ± 4.0^a μg/cm^2; in [1] (from cream 1% (w/w), 1 h), 206.7 ± 8.9^a μg/cm^2; in data set [1] (from cream 1% (w/w), 2 h), 568.7 ± 7.2^b μg/cm^2; in data set [1] (from cream 1% (w/w), 4 h), 1414.5 ± 21.3^d μg/cm^2; in data set [1] (from cream 1% (w/w), 6 h), 2533.7 ± 9.2^f μg/cm^2; in data set [1] (from cream 1% (w/w), 24 h), 10602.6 ± 18.2^h μg/cm^2. In addition, the “Cumulative permeated amounts Q t” value in [1] (from gel 1% (w/w), 0.5 h) is 220.5 ± 11.1^abc μg/cm^2; in [1] (from gel 1% (w/w), 1 h) it was 401.6 ± 30.9^c μg/cm^2; in data set [1] (from gel 1% (w/w), 2 h), 626.4 ± 211.1^d μg/cm^2; in [1] (from gel 1% (w/w), 4 h) it was 1474.5 ± 306.9^f μg/cm^2; in [1] (from gel 1% (w/w), 6 h) it was 1927.6 ± 241.2^g μg/cm^2; in data set [1] (from gel 1% (w/w), 24 h), 13766.8 ± 92.8^i μg/cm^2. Besides, the “Cumulative permeated amounts Q t” value in data set [1] (from ointment 1% (w/w), 0.5 h) was 75.3 ± 5.4^cd μg/cm^2; in data set [1] (from ointment 1% (w/w), 1 h) it was 84.8 ± 7.3^de μg/cm^2; in data set [1] (from ointment 1% (w/w), 2 h), 96.7 ± 5.9^fg μg/cm^2; in data set [1] (from ointment 1% (w/w), 4 h), 112.4 ± 7.3^h μg/cm^2; in [1] (from ointment 1% (w/w), 6 h), 126.4 ± 3.7^i μg/cm^2; in [1] (from ointment 1% (w/w), 24 h) it was 151.9 ± 9.5^j μg/cm^2. For the same compound, the “permeation through the skin, fold more than the nanonized form” value in [1] (from the buffer and other semisolid pharmaceutical compositions) is “ca. 2 fold”. Besides, the “lag time T lag” value was determined as 0.69 ± 0.38 h in data set [1] (medium buffer), 0.57 ± 0.01 h in [1] (medium cream) and 1.03 ± 0.23 h in data set [1] (medium gel). Also, the “apparent permeability coefficient K p × 10^−3” value in [1] (medium buffer) was 16.84 10^−3 cm/h; in [1] (medium cream) it was 45.22 10^−3 cm/h; in [1] (medium gel) it was 58.80 10^−3 cm/h. Besides, the “nonsteady-state permeation flux J” value came to 168.4 ± 8.7 μg/cm^2/h in [1] (medium buffer, linearized Q t vs time, six time points); 452.2 ± 0.8 μg/cm^2/h in data set [1] (medium cream); 588.0 ± 4.8 μg/cm^2/h in [1] (medium gel).

On to `C[C@@H]1NC(=O)C2(CCCC2)NC1=O` [alaptide, (S)-8-Methyl-6,9-diazaspiro[4.5]decan-7,10-dione], for which the “permeation through the skin from ointment” value in data set [1] (both forms of alaptide, ointment) was “minimal”. Besides, the “skin regeneration after application on experimental injury” value in data set [2] is “faster skin regeneration”. In data set [3], the “toxic effects (including skin irritation)” value is recorded as “No toxic effects”. Besides, the “curing of experimental skin injuries” value in [4] was “accelerated curing experimental skin injuries”. The excretion entry in [5] is given as “excreted unchanged, mostly via urine”. In data set [6], the “Induction of CYP1B1” value is “did not occur”. In addition, in [7], the “experimental log P o/w” value is recorded as 1.39. Moreover, the “Induction of CYP1A2” value in [8] was “did not occur”. In addition, the “Induction of CYP1A1” value in data set [9] is “did not occur”. Besides, the solubility result in [10] is given as “poorly soluble”. The stability result in data set [10] (sunlight) is given as “stable in the sunlight”.
